# Results: PMC8067754, “Active Transport of Hepatotoxic Pyrrolizidine Alkaloids in HepaRG Cells” (International Journal of Molecular Sciences, 2021)
# Where “and” joins values, the source holds several entries; their conditions need not be identical. Equal entries are not always repeated. Where two headings read alike, the source gives them in different places.
# Key:
# HepaRG cells = assay: Cell viability (MTT assay) of HepaRG cells with and without transporter inhibitors; type: cell-based, human; conditions: for viability [%], single replicates: repl. 1-6; for Cell viability (MTT), percent of solvent control, Mean [%]: 24 h, listed as Sc
# Description: (§1) In the case of TEA, cells were pre-incubated 24 h prior to PA treatment. The inhibitors were applied anew at PA incubation.
# (§2) To analyze the cytotoxic effects of PAs on HepaRG cells with non-inhibited and inhibited hepatic transporters, the cells were seeded at a density of 9000 cells per well in the inner 60 wells of a 96-well plate and cultivated as described in Section 4.2. After four weeks of cultivation, FBS concentration in the cell culture medium was reduced to 2% for 48 h prior incubation. Thereby, inhibitory effects of peptide growth factors from the FBS on xenobiotic-metabolizing enzymes were minimized. […] The cells were pre-incubated with pharmacological inhibitors as described in Section 4.3. […] Cell viability was analyzed via the MTT test. 10 µl MTT reagent (5 mg/mL MTT dissolved in phosphate-buffered saline, PBS) was added per well and incubated for 1 h at 37 °C. The supernatant was discarded, and the violet formazan crystals dissolved in 130 µL desorption solution (0.7% sodium dodecyl sulfate in propan-2-ol). After shaking for 20 min (under protection from light), absorbance was measured on a TecanM200Pro spectrometer (Tecan Group Ltd., Männedorf, Switzerland) at a wavelength of 570 nm, along with a reference wavelength of 630 nm.
# [1] = as above; type: cell-based, human; conditions: human, HepaRG cells
# Description: as §1, §2
# [2] = mean of 6 replicates, no inhibitor, read-out: viability, MW [%]
# [3] = repl. 1-6, read-out: viability [%], single replicates
structure (smiles),measurement,setting,value
"C/C=C1/C[C@@H](C)[C@@](C)(O)C(=O)OCC2=CCN3CC[C@@H](OC1=O)[C@@H]23 [Senecionine, senecionine]","viability [%], single replicates",HepaRG cells; 1 µM,104.702% and 96.5101% and 108.622% and 97.0096% and 97.8347%
same,"viability [%], single replicates",HepaRG cells; 10 µM,86.1735% and 91.8709% and 86.9963% and 83.2717% and 79.1258%
same,"viability [%], single replicates",HepaRG cells; 50 µM,59.5192% and 77.2207% and 70.6602% and 63.183% and 55.3454%
same,"viability [%], single replicates",HepaRG cells; 100 µM,53.5295% and 51.7769% and 80.0886% and 68.6733% and 54.6212% and 49.5185%
same,"viability [%], single replicates",HepaRG cells; 250 µM,44.9713% and 47.0747% and 66.5507% and 52.719% and 45.8871% and 35.0536%
same,cytotoxicity of the applied concentration,"HepaRG cells; HepaRG, 2.5 µM, Figure S2",not cytotoxic
same,"Cell viability (MTT), percent of solvent control, Mean [%]","HepaRG cells; HepaRG, 250 µM PA + CsA (10 µM, 1 h pre-incubation)",63.5771%
same,"Cell viability (MTT), percent of solvent control, Mean [%]","HepaRG cells; HepaRG, 250 µM PA + Qu (100 µM, 1 h pre-incubation)",91.9218%
same,"Cell viability (MTT), percent of solvent control, Mean [%]","HepaRG cells; HepaRG, 250 µM PA + TEA (3 mM, 24 h pre-incubation)",69.5844%
same,"Cell viability (MTT), percent of solvent control, Mean [%]","HepaRG cells; HepaRG, 250 µM PA only",46.8929%
same,"viability at 24 h, 1 µM",[1]; [2],100%
same,"viability at 24 h, 1 µM",[1]; [3],95.1%
same,"viability at 24 h, 10 µM",[1]; [2],84.6%
same,"viability at 24 h, 10 µM",[1]; [3],80%
same,"viability at 24 h, 50 µM","[1]; 50 µM, mean of 6 replicates, no inhibitor, read-out: viability, MW [%]",65%
same,"viability at 24 h, 100 µM","[1]; 100 µM, mean of 6 replicates, no inhibitor, read-out: viability, MW [%]",59.7%
same,"viability at 24 h, 250 µM","[1]; 250 µM, mean of 6 replicates, no inhibitor, read-out: viability, MW [%]",48.7%
same,"viability at 24 h, 250 µM","[1]; HepaRG, 250 µM PA only, 24 h, read-out: Cell viability (MTT), percent of solvent control, Mean [%]",46%
same,"viability at 24 h, 250 µM","[1]; with 5 µM Ko143, HepaRG, 250 µM PA + Ko143 (5 µM, 1 h pre-incubation), 24 h, read-out: Cell viability (MTT), percent of solvent control, Mean [%]",46.5%
same,"viability at 24 h, 250 µM","[1]; with 50 µM MK-571, HepaRG, 250 µM PA + MK571 (50 µM, 1 h pre-incubation), 24 h, read-out: Cell viability (MTT), percent of solvent control, Mean [%]",59.1%
same,"viability at 24 h, 250 µM","[1]; with CsA 10 µM, HepaRG, 250 µM PA + CsA (10 µM, 1 h pre-incubation), 24 h, read-out: Cell viability (MTT), percent of solvent control, Mean [%]",63%
same,"viability at 24 h, 250 µM","[1]; with Qu 100 µM, HepaRG, 250 µM PA + Qu (100 µM, 1 h pre-incubation), 24 h, read-out: Cell viability (MTT), percent of solvent control, Mean [%]",90%
same,"viability at 24 h, 250 µM","[1]; with TEA 3 mM, HepaRG, 250 µM PA + TEA (3 mM, 24 h pre-incubation), 24 h, read-out: Cell viability (MTT), percent of solvent control, Mean [%]",69%
